# Assay results from patent US11959104B2, “Methods of differentiating stem cell-derived ectodermal lineage precursors” (MEMORIAL SLOAN-KETTERING CANCER CENTER, priority 2016, dated 2024).
# Assays:
# rodent GSK3β homologs = settings: cited from earlier work
# hPSCs = test: Toxicity of KSR-protocol small molecule concentrations in E6 differentiation; assay type: cell-based, human; settings: original KSR-protocol concentration used in E6
# Excerpt: To transition these protocols into the more defined E6 media, we adapted hPSCs in E8 for multiple passages and simply replaced the KSR-based medium with an E6 based differentiation while maintaining factors and concentrations as described previously to trigger the 4 major ectodermal lineages (FIG. 9A). […] After determining an optimal non-toxic concentration for each of the small molecules we observed that NE formation under E6 conditions was equivalent to that obtained with KSR-based conditions. […] We compared the efficiency of generating PAX6 positive cells using either no small molecules, using dSMADi or using the single TGFβ inhibitor SB431542 (SB). We found robust PAX6 expression in the absence of dSMADi (˜40% of total cells on day 12 post induction). However, the percentage of cells expressing PAX6 was further improved upon addition of SB or dSMADi to nearly 90% and 80%, respectively (FIGS. 1E and 9B).
# SIX1 placode cells = test: Trigeminal placode induction by Wnt activation pulse; assay type: cell-based, human; settings: additional pulse after the BMP pulse
# Procedure: (§1) All differentiations starting from E8 were dissociated into single cells using EDTA and replated at high density in E8 with the ROCK inhibitor (Tocris). Cells were typically seeded at a density of 200,000 cells/cm^2 on Matrigel coated dishes. Switching from E8 to E6 triggered differentiations (i.e. d0). Neuroectoderm (NE) formation was generated by culturing the cells in E6 with […] and 500 nM LDN until d12. Neural Crest (NC) was first treated with […], 600 nM CHIR and 1 ng/ml BMP4 from d0-d2. At d2, cells were maintained in […] with 1.5 uM CHIR until d12. Lens placode was first treated with […] and 5 ng/ml BMP4 from d0-d2. At d2, cells were maintained in […] with 100 ng/ml FGF2 until d12. Trigeminal placode was first treated with […] and 5 ng/ml BMP4 from d0-d2. At d2, CHIR was added to the SB and BMP4 until d4. Finally, non-neural ectoderm (NNE) was treated with 10 nM SB, 10 nM SU5402 and 20 ng/ml BMP4 until d12.
# hPSC = test: Cranial placode induction in E6 media, SIX1 positive cells, FGF addition; assay type: cell-based, human; settings: added to E6 culture comprising SB431542 and BMP
# Procedure: as §1
# [1] = test system: Six1::H2B-GFP reporter line; test: LOPAC small molecule screen and validation for enhanced CP induction; settings: CP protocol after the addition of FGF2
# Procedure: All differentiations starting from E8 were dissociated into single cells using EDTA and replated at high density in E8 with the ROCK inhibitor (Tocris). Cells were typically seeded at a density of 200,000 cells/cm^2 on Matrigel coated dishes. Switching from E8 to E6 triggered differentiations (i.e. d0). Neuroectoderm (NE) formation was generated by culturing the cells in E6 with 10 nM SB and 500 nM LDN until d12. Neural Crest (NC) was first treated with 10 nM SB, 600 nM CHIR and 1 ng/ml BMP4 from d0-d2. […] Lens placode was first treated with 10 nM SB and 5 ng/ml BMP4 from d0-d2. At d2, cells were maintained in 10 nM SB with 100 ng/ml FGF2 until d12. Trigeminal placode was first treated with 10 nM SB and 5 ng/ml BMP4 from d0-d2. At d2, CHIR was added to the SB and BMP4 until d4. Finally, non-neural ectoderm (NNE) was treated with 10 nM SB, 10 nM SU5402 and 20 ng/ml BMP4 until d12.
# [2] = test system: human pluripotent stem cells; test: Neuroectoderm induction in E6 media, PAX6 positive cells (PAX6::H2B-GFP reporter); assay type: cell-based; settings: day 12 post induction, without small molecules ~40%
# Procedure: as §1, with “H9 ESCs (WA09) and modified reporter lines (passage 40-70) were cultured in the Knockout Serum Replacement (KSR) (Life Technologies) based media (DMEM-F12, 20% KSR, L-glutamate and 10 ng/ml FGF2) on mouse embryonic fibroblast feeders. KSR hPSCs were directly transferred to the E8 media (Life Technologies) coated with Vitronectin and adapted for 4-5 passages before differentiations were performed. KSR based differentiations were performed as previously described, neuroectoderm and neural crest (Mica et al., 2013), and placode and non-neural ectoderm ([…] et al., 2013). All” for “All”, “At d2, CHIR was added to the SB and BMP4 until d4. Finally, non-neural ectoderm (NNE) was treated with 10 nM SB, 10 nM SU5402 and 20 ng/ml BMP4 until d12.” left out
compound,measurement,setting,value
"Cc1c[nH]c(-c2cnc(NCCNc3ccc(C#N)cn3)nc2-c2ccc(Cl)cc2Cl)n1 [CHIR99021, 6-(2-(4-(2,4-dichlorophenyl)-5-(4-methyl-1H-imidazol-2-yl)pyrimidin-2-ylamino)ethylamino)nicotinonitrile]",IC50 values against rodent GSK3β homologs,rodent GSK3β homologs,nanomolar
same,cell killing during differentiation,hPSCs,effectively killed the cells
same,PAX3 expression in SIX1 placode cells,SIX1 placode cells,capable of triggering PAX3 expression
FGF2: activator of FGF signaling,SIX1 positive CP cells,hPSC,~50%
same,Six1 positive cells,[1],34%
"NC(=O)c1ccc(-c2nc(-c3ccc4c(c3)OCO4)c(-c3ccccn3)[nH]2)cc1 [SB431542, 4-[4-(1,3-benzodioxol-5-yl)-5-(2-pyridinyl)-1H-imidazol-2-yl]-benzamide]",percentage of cells expressing PAX6,[2],~90%
